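Results reflect a 48-hour exposure of cells in 96-well plates to compound at five concentrations. GI50 = concentration required for 50% inhibition of growth. TGI: concentration producing complete growth inhibition.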
Tests used:
Test in all cases: inhibition of tumour cell growth, NCI panel, 48 h
[1] = system: 786-0 renal
[2] = system: A498 renal
[3] = system: A549 NSCLC
[4] = system: ACHN renal
[5] = system: BT-549 breast
[6] = system: CAKI-1 renal
[7] = system: CCRF-CEM leukemia
[8] = system: COLO 205 colon
[9] = system: DU-145 prostate
[10] = system: EKVX NSCLC
[11] = system: HCC-2998 colon
[12] = system: HCT-116 colon
[13] = system: HCT-15 colon
[14] = system: HL-60(TB) leukemia
[15] = system: HOP-62 NSCLC
[16] = system: HOP-92 NSCLC
[17] = system: HS 578T breast
[18] = system: HT29 colon
[19] = system: IGROV1 ovarian
[20] = system: K-562 leukemia
[21] = system: KM12 colon
[22] = system: LOX IMVI melanoma
[23] = system: M14 melanoma
[24] = system: MALME-3M melanoma
[25] = system: MCF7 breast
[26] = system: MDA-MB-231 breast
[27] = system: MDA-MB-435
[28] = system: MOLT-4 leukemia
[29] = system: NCI-H226 lung
[30] = system: NCI-H23 lung
[31] = system: NCI-H460 lung
[32] = system: NCI-H522 lung
[33] = system: NCI/ADR-RES ovarian
[34] = system: OVCAR-4 ovarian
[35] = system: OVCAR-5 ovarian
[36] = system: OVCAR-8 ovarian
[37] = system: PC-3 prostate
[38] = system: RPMI-8226 leukemia
[39] = system: RXF 393 renal
[40] = system: SF-268 CNS
[41] = system: SF-295 CNS
[42] = system: SF-539 CNS
[43] = system: SK-MEL-2 melanoma
[44] = system: SK-MEL-28 melanoma
[45] = system: SK-MEL-5 melanoma
[46] = system: SK-OV-3 ovarian
[47] = system: SN12C renal
[48] = system: SNB-19 CNS
[49] = system: SNB-75 CNS
[50] = system: SR leukemia
[51] = system: SW-620 colon
[52] = system: T-47D breast
[53] = system: TK-10 renal
[54] = system: U251 CNS
[55] = system: UACC-257 melanoma
[56] = system: UACC-62 melanoma
[57] = system: UO-31 renal

For `Oc1ccc(CSc2nnc(-c3ccc(Oc4ccccc4)cc3)n2-c2ccccc2)c2cccnc12`, the GI50 [1] was 527 nM, the TGI [1] was 11300 nM and the GI50 [2] was 641 nM. For the same molecule, the TGI [2] was 19800 nM, the GI50 [3] was 133 nM and the TGI [3] was > 33200 nM. The GI50 [4] was 137 nM, the TGI [4] was 10900 nM and the GI50 [5] was 105 nM. For the same molecule, the TGI [5] was > 100000 nM, the GI50 [6] was 313 nM and the TGI [6] was 15200 nM. The GI50 [7] was 72.9 nM, the TGI [7] was > 100000 nM and the GI50 [8] was 1270 nM. The TGI [8] was > 100000 nM, the GI50 [9] was 340 nM and the TGI [9] was > 100000 nM. For the same molecule, the GI50 [10] was 339 nM, the TGI [10] was > 100000 nM and the GI50 [11] was 154 nM. The TGI [11] was > 100000 nM, the GI50 [12] was 41.3 nM and the TGI [12] was 16000 nM. The GI50 [13] was 179 nM, the TGI [13] was > 100000 nM and the GI50 [14] was 79.8 nM. The TGI [14] was 1060 nM, the GI50 [15] was 304 nM and the TGI [15] was > 34600 nM. It also gave a GI50 [16] of 213 nM, a TGI [16] of 31800 nM and a GI50 [17] of 325 nM. For the same molecule, the TGI [17] was > 100000 nM, the GI50 [18] was 4100 nM and the TGI [18] was > 100000 nM. The GI50 [19] was 166 nM, the TGI [19] was > 55900 nM and the GI50 [20] was 155 nM. The TGI [20] was > 53100 nM, the GI50 [21] was 176 nM and the TGI [21] was > 100000 nM. For the same molecule, the GI50 [22] was 169 nM, the TGI [22] was 7180 nM and the GI50 [23] was 95.4 nM. The TGI [23] was 1120 nM, the GI50 [24] was 340 nM and the TGI [24] was 11000 nM. The GI50 [25] was 94.2 nM, the TGI [25] was > 100000 nM and the GI50 [26] was 355 nM. For the same molecule, the TGI [26] was 33000 nM, the GI50 [27] was 57 nM and the TGI [27] was > 100000 nM. The GI50 [28] was 100 nM, the TGI [28] was > 38500 nM and the GI50 [29] was 369 nM. For the same molecule, the TGI [29] was > 100000 nM, the GI50 [30] was 260 nM and the TGI [30] was 25600 nM. The GI50 [31] was 38.5 nM, the GI50 [32] was 226 nM and the GI50 [33] was 270 nM. For the same molecule, the TGI [33] was 6990 nM, the GI50 [34] was 451 nM and the TGI [34] was > 72300 nM. The GI50 [35] was 639 nM, the TGI [35] was > 100000 nM and the GI50 [36] was 146 nM. For the same molecule, the TGI [36] was > 46500 nM, the GI50 [37] was 83.4 nM and the TGI [37] was > 100000 nM. The GI50 [38] was 146 nM, the TGI [38] was > 100000 nM and the GI50 [39] was 981 nM. For the same molecule, the TGI [39] was > 58700 nM, the GI50 [40] was 73.9 nM and the TGI [40] was > 100000 nM. The GI50 [41] was 208 nM, the TGI [41] was > 69200 nM and the GI50 [42] was 230 nM. The TGI [42] was 9870 nM, the GI50 [43] was 442 nM and the TGI [43] was > 25500 nM. The GI50 [44] was 247 nM, the TGI [44] was > 100000 nM and the GI50 [45] was 222 nM. For the same molecule, the TGI [45] was 2400 nM, the GI50 [46] was 307 nM and the GI50 [47] was 275 nM. For the same molecule, the TGI [47] was > 100000 nM, the GI50 [48] was 223 nM and the TGI [48] was > 100000 nM. For the same molecule, the GI50 [49] was 188 nM, the TGI [49] was 22700 nM and the GI50 [50] was 66.4 nM. For the same molecule, the TGI [50] was 20300 nM, the GI50 [51] was 182 nM and the TGI [51] was > 100000 nM. For the same molecule, the GI50 [52] was 263 nM, the TGI [52] was 9180 nM and the GI50 [53] was 153 nM. The TGI [53] was > 42400 nM, the GI50 [54] was 69.6 nM and the TGI [54] was > 35600 nM. For the same molecule, the GI50 [55] was 186 nM, the TGI [55] was 843 nM and the GI50 [56] was 256 nM. It also gave a TGI [56] of 1130 nM, a GI50 [57] of 142 nM and a TGI [57] of 2450 nM.

— PubChem BioAssay (NCI)
